Measurements published in publication PMC10539329, “NLRP6 potentiates PI3K/AKT signalling by promoting autophagic degradation of p85α to drive tumorigenesis” (Nature Communications, 2023).
Each block holds one molecule with its values, some of them ahead of it. Peptide text beside a SMILES is read from it.

Experiments:
p85α in LN229 cells = test: NLRP6-induced p85α degradation with pathway inhibitors, immunoblot, LN229; type: cell-based, Human; settings: LN229 cells transfected with Flag-NLRP6, immunoblot
Description: (§1) For coimmunoprecipitation, cell lysate was collected and incubated with the indicated antibody at 4 °C overnight followed by incubation with Protein A/G beads (Pierce, IL, USA) at 4 °C for 2 h. The unbound proteins were washed away with lysis buffer. The precipitated proteins were separated from the beads. To detect protein expression in frozen tissues or cells, total protein was extracted using RIPA lysis buffer (Beyotime, Shanghai, China) supplemented with protease and phosphatase inhibitors (Beyotime, Shanghai, China). The protein concentration was determined using a BCA protein quantification kit (Beyotime, Shanghai, China) or BCA Protein Assay Kit (BEB, Nanjing, China). The proteins were separated by SDS–PAGE, transferred to polyvinylidene fluoride (PVDF) membranes (Bio–Rad, CA, USA), and incubated with the indicated antibodies. The bands were detected with the ECL Advanced Western blot Detection Kit (Thermo Fisher Scientific, MA, USA) or Super ECL Chemiluminescent Substrate Kit (BEB, Nanjing, China) on a ChemiDoc Touch System (Bio–Rad, CA, USA) or Tanon 4600 (Tanon, Shanghai, China). The band intensities were quantified using Image Lab software (Bio–Rad, CA, USA) or ImageJ software (National Institutes of Health, MD, USA).

recombinant NLRP6 = target: T1, recombinant NLRP6 (Homo sapiens, UniProt P59044); test: Biolayer interferometry (BLI) binding of peptides to recombinant NLRP6; settings: Octet Red 96, biotin-NLRP6 on streptavidin biosensors, 30 °C, PBS with 0.01% Tween-20, global 1:1 fitting, printed in picture Fig. 6b, representative of three independent experiments
T1 construct: DNA encoding full-length NLRP6 was codon optimized; His (N); MBP (N); made in house; host or cells: E. coli (DE3)
T1 sequence (P59044 1-892): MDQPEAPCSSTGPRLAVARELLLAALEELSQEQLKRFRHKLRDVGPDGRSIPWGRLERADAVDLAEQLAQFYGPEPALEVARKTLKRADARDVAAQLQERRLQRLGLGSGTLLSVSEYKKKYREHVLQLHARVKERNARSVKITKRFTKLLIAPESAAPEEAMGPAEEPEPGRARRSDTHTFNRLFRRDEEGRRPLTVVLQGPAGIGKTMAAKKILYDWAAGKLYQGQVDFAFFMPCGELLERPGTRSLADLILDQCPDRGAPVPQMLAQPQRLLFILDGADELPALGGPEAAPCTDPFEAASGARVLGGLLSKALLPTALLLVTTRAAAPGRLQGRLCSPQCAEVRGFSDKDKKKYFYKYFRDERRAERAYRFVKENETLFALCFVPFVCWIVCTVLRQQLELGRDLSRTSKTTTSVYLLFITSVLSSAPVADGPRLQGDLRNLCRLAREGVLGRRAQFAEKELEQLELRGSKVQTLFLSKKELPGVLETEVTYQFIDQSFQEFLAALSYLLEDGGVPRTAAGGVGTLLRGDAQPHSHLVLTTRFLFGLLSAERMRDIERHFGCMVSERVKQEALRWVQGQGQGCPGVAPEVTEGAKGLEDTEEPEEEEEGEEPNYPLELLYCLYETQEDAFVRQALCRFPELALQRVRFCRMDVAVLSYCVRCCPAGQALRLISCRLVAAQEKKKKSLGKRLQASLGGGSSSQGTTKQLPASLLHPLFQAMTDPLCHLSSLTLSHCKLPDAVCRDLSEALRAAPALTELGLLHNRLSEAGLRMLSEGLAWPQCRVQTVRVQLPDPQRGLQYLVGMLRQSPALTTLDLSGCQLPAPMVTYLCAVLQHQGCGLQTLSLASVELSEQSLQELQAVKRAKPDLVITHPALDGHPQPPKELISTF
Description: DNA encoding full-length NLRP6 was codon optimized and chemically synthesized by Genewiz (Soochow, China). The DNA sequence was subcloned into NdeI-XhoI sites of a pDB-His-MBP vector (kindly given by Pro. Chenggui Han, China Agricultural University, Beijing, China). Recombinant NLRP6 protein was expressed and purified following previous reports, with slight modifications. Briefly, the protein was expressed in E. coli (DE3) at 16 °C with 0.5 mM IPTG induction overnight. Then, the protein was purified by Ni affinity and gel filtration chromatography. The p85α WT and p85α mutant sequences were chemically synthesized and subcloned into BamHI-XhoI sites of a pGEX-6P-1 plasmid by GenScript (Nanjing, China). The E. coli (DE3) transformed with the plasmids were grown in LB medium at 37 °C. The culture medium was supplemented with 0.5 mM IPTG followed by incubation at 16 °C for 16–18 h. […] The protein extinction coefficient was calculated by ProtParam, and the protein concentration was determined by the ultraviolet spectrophotometry method.
Eleven α-helical peptides were synthesized (Supplementary Data 7). […] The interaction between the peptides and NLRP6 was determined by BLI using an Octet Red 96 instrument (FortéBio, CA, USA). […] Responses (nanometre shift) were calculated using data that were double reference subtracted using reference wells and nonspecific binding of the biosensor to the analyte. […]

AKT = settings: cited from earlier work
Description: To investigate whether NLRs could regulate PI3K/AKT pathway, the FOXO luciferase reporter assay was performed to detect the transcriptional activity of FOXO, which is one of the best characterized targets of PI3K/AKT pathway. Two independent oligonucleotides targeting each of 22 human NLRs were mixed and transfected into LN229 cells. The nontargeting oligonucleotides served as a negative control. The knockdown efficiency targeting each NLR was confirmed by qRT-PCR (Supplementary Fig. 1a). […] Thus, interrupting the interaction between NLRP6 and p85α appears to be an attractive strategy to inhibit tumour growth. α-Helices are the fundamental recognition elements in protein-protein interactions and may serve as ideal inhibitors of macromolecular interactions. According to the observations that the SR domain (amino acids 1–301) on p85α interacted with the NOD domain (amino acids 1 ...

PI3K/AKT pathway [1] = test: Immunoblot of PI3K/AKT pathway with Pep9 and SC-79; type: cell-based
Description: as §1

PI3K/AKT pathway [2] = test: PI3K/AKT activation by NLRP6 overexpression with MK-2206; type: cell-based
Description: as §1

purified NLRP6 = test: ELISA, binding of HRP-conjugated peptide to purified NLRP6; settings: ELISA, 1 h
Description: DNA encoding full-length NLRP6 was codon optimized and chemically synthesized by Genewiz (Soochow, China). The DNA sequence was subcloned into NdeI-XhoI sites of a pDB-His-MBP vector (kindly given by Pro. Chenggui Han, China Agricultural University, Beijing, China). Recombinant NLRP6 protein was expressed and purified following previous reports, with slight modifications. Briefly, the protein was expressed in E. coli (DE3) at 16 °C with 0.5 mM IPTG induction overnight. Then, the protein was purified by Ni affinity and gel filtration chromatography. The p85α WT and p85α mutant sequences were chemically synthesized and subcloned into BamHI-XhoI sites of a pGEX-6P-1 plasmid by GenScript (Nanjing, China). The E. coli (DE3) transformed with the plasmids were grown in LB medium at 37 °C. The culture medium was supplemented with 0.5 mM IPTG followed by incubation at 16 °C for 16–18 h. The proteins were purified by glutathione-affinity chromatography (Smart-Life Sciences, Changzhou, China) followed by gel filtration chromatography (Cytiva, MA, USA) using PBS. The protein extinction coefficient was calculated by ProtParam, and the protein concentration was determined by the ultraviolet spectrophotometry method.
The 96-well plate was coated with bovine serum albumin (BSA) or purified NLRP6. HRP-conjugated PepC or HRP-conjugated Pep9 was incubated with BSA or NLRP6 for 1 h, and the unbound peptide was washed away. The HRP substrate was added, and the absorbance was detected at 450 nm. For the competitive ELISA, the 96-well plate was coated with purified p85α. The binding of NLRP6 to p85α competed with 10 μM PepC or 5 μM, 10 μM, 20 μM Pep9 for 1 h.

Molecule: CCN(CC)CCCC(C)Nc1ccnc2cc(Cl)ccc12 (stereo not shown) [chloroquine (CQ), chloroquine]
NLRP6-induced p85α degradation (in words) (p85α in LN229 cells): attenuated NLRP6-induced p85α degradation

Molecule: Cn1cnc(N)c2ncnc1-2 [3-methyladenine (3-MA), 3-methyladenine]
NLRP6-induced p85α degradation (in words) (p85α in LN229 cells): attenuated NLRP6-induced p85α degradation

Kd (recombinant NLRP6): 9 µM
Molecule: CC(C)C[C@H](NC(=O)[C@H](CC(N)=O)NC(=O)[C@H](CCCCN)NC(=O)[C@H](CO)NC(=O)[C@H](CO)NC(=O)[C@@H](NC(=O)[C@H](CCC(N)=O)NC(=O)[C@H](CO)NC(=O)[C@H](CC(C)C)NC(=O)[C@H](CCCCN)NC(=O)[C@H](Cc1ccccc1)NC(=O)[C@H](Cc1ccccc1)NC(=O)[C@H](Cc1c[nH]cn1)NC(=O)[C@H](CCCCN)NC(=O)[C@H](CC(C)C)NC(=O)[C@H](CC(C)C)NC(=O)[C@H](Cc1ccc(O)cc1)NC(=O)[C@H](CCC(N)=O)NC(=O)[C@H](CC(C)C)NC(=O)[C@@H](NC(=O)[C@H](CC(C)C)NC(=O)[C@H](Cc1c[nH]c2ccccc12)NC(=O)[C@H](Cc1ccc(O)cc1)NC(=O)[C@H](CCC(N)=O)NC(=O)[C@H](Cc1c[nH]cn1)NC(=O)[C@@H]1CCCN1)[C@@H](C)O)[C@@H](C)O)C(=O)O [Pep9] (H-PHQYWLTLQYLLKHFFKLSQTSSKNL-OH)

Molecule: CCOC(=O)C1=C(N)Oc2ccc(Cl)cc2C1C(C#N)C(=O)OCC (stereo not shown) [SC-79]
AKT binding and activation (in words) (AKT; cytosol): specifically binds to the PH domain of AKT and activates AKT in the cytosol
effect of SC-79 on Pep9 inhibition of PI3K/AKT pathway (in words) (PI3K/AKT pathway [1]): The inhibition of Pep9 on PI3K/AKT pathway was reversed when SC79 was added

Molecule: NC1(c2ccc(-c3nc4ccn5c(=O)[nH]nc5c4cc3-c3ccccc3)cc2)CCC1 [MK-2206]
PI3K/AKT activation by NLRP6 overexpression (in words) (PI3K/AKT pathway [2]): NLRP6 overexpression could not activate PI3K/AKT pathway anymore when MK-2206 was introduced
AKT inhibition (in words) (AKT): highly potent and selective allosteric AKT inhibitor

Molecule: CO/C1=C\C(C)=C\[C@@H](C)[C@@H](O)[C@@H](C)C/C(C)=C/C=C/[C@H](OC)[C@@H]([C@@H](C)[C@@H](O)[C@H](C)[C@@]2(O)C[C@@H](O)[C@H](C)[C@@H](C(C)C)O2)OC1=O [bafilomycin A1 (BafA1), bafilomycin A1]
NLRP6-induced p85α degradation (in words) (p85α in LN229 cells): attenuated NLRP6-induced p85α degradation

Molecule: Cl.N [NH4Cl]
NLRP6-induced p85α degradation (in words) (p85α in LN229 cells): attenuated NLRP6-induced p85α degradation

binding of HRP-conjugated peptide to NLRP6 (in words) (purified NLRP6): could bind to NLRP6
B1: HRP-conjugated Pep9: Horseradish peroxidase (HRP)-conjugated Pep9 (conjugate)
peptide: EADVEQQALTLPDLAEQFAPPDIAPPLLIKLVEAIEKKGLECSTLYRTQSSSNLAELRQLLDCDTPSVDLEMIDVHVLADAFKRYLLDLPNPVIPAAVYSEMISLAPEVQSSEEYIQLLKKLIRSPSIPHQYWLTLQYLLKHFFKLSQTSSKNLLNARVLSEIFSPMLFRFSAASSDNTENLIKVIEILISTEWNERQPAPALPPKPPKPTTVAN
modifications: left off: HRP, end not stated, kept
